The source of these data is US10870647B2, “Imidazopyridine derivative, method for preparing same, and pharmaceutical composition containing same as active ingredient for preventing or treating cancer” (DAEGU-GYEONGBUK MEDICAL INNOVATION FOUNDATION, priority 2016, dated 2020).

What all share (test): Kinase selectivity, scanMAX Kinase assay panel (DiscoverX), % control at 1 uM
Common to all, as to format: binding

Assay [1] concerns the target T1, scanMAX Kinase assay panel (Homo sapiens, UniProt Q8NI60).
T1 construct: purchased DiscoverX
To be noted: ADCK3; 1 uM; read-out: Percent Control (%). In a few lines: (§1)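 Each kinase was first exposed to the test compound at 1 uM in DMSO. Signal was then normalised to positive and negative controls to give % control. Finally, any enzyme showing <35% control was judged inhibited.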

Assay [2] deals with T2, scanMAX Kinase assay panel (Homo sapiens, UniProt Q6DT37).
T2 construct: purchased DiscoverX
To be noted: DMPK2; 1 uM; read-out: Percent Control (%). In a few lines: as §1

The target in assay [3] is T3, scanMAX Kinase assay panel (Homo sapiens, UniProt O15264).
T3 construct: purchased DiscoverX
T3 sequence (O15264 1-365): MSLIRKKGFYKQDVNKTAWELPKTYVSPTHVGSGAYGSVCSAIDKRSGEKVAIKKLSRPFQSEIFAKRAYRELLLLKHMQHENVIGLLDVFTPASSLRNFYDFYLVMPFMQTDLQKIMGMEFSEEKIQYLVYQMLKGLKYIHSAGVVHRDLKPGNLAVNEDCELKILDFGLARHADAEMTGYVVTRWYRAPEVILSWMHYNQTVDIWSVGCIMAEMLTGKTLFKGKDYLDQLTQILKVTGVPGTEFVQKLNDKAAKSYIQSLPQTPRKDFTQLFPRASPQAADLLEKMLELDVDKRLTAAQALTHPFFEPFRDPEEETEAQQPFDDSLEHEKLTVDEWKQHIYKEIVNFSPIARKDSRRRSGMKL
To be noted: p38-delta; 1 uM; read-out: Percent Control (%). Put shortly:
as §1

The target in assay [4] is T4, scanMAX Kinase assay panel (Homo sapiens, UniProt Q8IYT8).
T4 construct: purchased DiscoverX
T4 sequence (Q8IYT8 1-1036): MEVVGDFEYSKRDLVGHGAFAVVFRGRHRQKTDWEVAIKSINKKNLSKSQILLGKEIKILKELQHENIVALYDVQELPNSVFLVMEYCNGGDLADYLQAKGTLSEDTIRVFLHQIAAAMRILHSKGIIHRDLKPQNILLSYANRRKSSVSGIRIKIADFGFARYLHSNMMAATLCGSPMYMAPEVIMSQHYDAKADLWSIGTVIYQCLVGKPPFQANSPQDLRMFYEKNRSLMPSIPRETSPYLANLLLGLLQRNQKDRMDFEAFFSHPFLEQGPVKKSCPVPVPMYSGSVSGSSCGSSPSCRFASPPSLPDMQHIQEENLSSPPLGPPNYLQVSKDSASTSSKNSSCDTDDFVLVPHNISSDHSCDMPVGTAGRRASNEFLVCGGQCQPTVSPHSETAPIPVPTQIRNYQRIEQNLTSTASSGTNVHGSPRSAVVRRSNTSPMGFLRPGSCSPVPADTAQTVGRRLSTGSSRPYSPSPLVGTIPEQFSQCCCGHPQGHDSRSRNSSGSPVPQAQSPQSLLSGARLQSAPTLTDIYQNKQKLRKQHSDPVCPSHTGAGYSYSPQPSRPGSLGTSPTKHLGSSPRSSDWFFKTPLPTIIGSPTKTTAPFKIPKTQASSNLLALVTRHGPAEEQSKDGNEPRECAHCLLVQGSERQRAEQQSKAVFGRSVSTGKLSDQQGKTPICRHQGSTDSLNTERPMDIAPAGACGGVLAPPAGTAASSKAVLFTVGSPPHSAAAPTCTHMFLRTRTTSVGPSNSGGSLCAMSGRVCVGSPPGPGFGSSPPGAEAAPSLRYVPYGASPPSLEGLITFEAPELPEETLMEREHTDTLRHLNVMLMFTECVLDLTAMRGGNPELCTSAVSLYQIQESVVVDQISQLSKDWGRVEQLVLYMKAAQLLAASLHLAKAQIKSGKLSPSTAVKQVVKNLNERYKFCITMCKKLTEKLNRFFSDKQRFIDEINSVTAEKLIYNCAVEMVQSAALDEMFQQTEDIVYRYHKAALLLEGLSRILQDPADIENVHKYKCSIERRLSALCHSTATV
To be noted: ULK2; 1 uM; read-out: Percent Control (%). In a few lines: as §1

The target in assay [5] is T5, scanMAX Kinase assay panel (Homo sapiens, UniProt P07949).
T5 construct: purchased DiscoverX
T5 sequence (P07949 29-1114): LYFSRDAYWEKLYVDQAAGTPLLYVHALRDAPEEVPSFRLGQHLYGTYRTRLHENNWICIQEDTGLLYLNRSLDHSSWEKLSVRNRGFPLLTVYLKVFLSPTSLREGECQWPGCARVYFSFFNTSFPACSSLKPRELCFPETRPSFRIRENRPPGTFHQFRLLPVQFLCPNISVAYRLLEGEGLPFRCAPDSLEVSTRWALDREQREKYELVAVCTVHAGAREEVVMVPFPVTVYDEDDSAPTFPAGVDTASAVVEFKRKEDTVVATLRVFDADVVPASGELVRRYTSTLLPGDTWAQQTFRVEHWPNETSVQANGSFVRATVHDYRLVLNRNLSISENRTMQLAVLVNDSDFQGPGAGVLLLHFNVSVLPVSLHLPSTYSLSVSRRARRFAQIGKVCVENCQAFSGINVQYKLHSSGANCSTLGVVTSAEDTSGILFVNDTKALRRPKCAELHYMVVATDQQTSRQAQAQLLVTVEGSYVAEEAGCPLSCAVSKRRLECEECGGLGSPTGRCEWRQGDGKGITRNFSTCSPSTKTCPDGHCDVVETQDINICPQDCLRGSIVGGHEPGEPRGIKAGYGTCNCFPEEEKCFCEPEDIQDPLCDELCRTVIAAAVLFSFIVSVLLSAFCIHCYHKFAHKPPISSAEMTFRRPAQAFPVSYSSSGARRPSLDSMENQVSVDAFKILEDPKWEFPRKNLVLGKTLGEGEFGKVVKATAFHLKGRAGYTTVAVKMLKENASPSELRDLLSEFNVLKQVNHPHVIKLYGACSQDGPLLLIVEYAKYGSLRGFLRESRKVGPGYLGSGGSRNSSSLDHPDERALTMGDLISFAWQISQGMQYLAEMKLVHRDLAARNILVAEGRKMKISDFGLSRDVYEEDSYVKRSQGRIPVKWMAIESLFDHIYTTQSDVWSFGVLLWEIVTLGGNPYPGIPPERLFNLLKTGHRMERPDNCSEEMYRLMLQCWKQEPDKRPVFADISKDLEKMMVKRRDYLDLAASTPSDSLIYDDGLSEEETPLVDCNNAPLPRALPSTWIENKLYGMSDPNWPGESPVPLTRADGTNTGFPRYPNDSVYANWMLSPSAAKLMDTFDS
To be noted: RET; 1 uM; read-out: Percent Control (%). In a few lines: as §1

Assay [6] deals with T6, scanMAX Kinase assay panel (Homo sapiens, UniProt Q9UBE8).
T6 construct: purchased DiscoverX
T6 sequence (Q9UBE8 1-527): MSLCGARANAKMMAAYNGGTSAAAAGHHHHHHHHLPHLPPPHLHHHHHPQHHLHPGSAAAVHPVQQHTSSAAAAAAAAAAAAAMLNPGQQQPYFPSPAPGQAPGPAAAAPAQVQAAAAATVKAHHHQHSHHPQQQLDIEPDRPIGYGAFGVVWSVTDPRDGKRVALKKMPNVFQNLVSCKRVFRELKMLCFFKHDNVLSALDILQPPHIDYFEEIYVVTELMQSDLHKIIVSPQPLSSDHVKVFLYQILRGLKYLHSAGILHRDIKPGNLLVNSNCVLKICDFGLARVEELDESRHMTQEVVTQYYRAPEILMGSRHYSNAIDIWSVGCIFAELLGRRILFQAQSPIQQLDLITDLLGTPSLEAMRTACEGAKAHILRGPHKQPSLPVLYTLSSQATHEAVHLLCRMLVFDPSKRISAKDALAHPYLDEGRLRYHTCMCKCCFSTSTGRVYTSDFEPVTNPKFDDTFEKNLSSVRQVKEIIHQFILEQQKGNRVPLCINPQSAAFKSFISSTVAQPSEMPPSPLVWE
Conditions: NLK; 1 uM; read-out: Percent Control (%). Put shortly:
as §1

The target in assay [7] is T7, scanMAX Kinase assay panel (Homo sapiens, UniProt Q9H4A3).
T7 construct: purchased DiscoverX
T7 sequence (Q9H4A3 whole entry): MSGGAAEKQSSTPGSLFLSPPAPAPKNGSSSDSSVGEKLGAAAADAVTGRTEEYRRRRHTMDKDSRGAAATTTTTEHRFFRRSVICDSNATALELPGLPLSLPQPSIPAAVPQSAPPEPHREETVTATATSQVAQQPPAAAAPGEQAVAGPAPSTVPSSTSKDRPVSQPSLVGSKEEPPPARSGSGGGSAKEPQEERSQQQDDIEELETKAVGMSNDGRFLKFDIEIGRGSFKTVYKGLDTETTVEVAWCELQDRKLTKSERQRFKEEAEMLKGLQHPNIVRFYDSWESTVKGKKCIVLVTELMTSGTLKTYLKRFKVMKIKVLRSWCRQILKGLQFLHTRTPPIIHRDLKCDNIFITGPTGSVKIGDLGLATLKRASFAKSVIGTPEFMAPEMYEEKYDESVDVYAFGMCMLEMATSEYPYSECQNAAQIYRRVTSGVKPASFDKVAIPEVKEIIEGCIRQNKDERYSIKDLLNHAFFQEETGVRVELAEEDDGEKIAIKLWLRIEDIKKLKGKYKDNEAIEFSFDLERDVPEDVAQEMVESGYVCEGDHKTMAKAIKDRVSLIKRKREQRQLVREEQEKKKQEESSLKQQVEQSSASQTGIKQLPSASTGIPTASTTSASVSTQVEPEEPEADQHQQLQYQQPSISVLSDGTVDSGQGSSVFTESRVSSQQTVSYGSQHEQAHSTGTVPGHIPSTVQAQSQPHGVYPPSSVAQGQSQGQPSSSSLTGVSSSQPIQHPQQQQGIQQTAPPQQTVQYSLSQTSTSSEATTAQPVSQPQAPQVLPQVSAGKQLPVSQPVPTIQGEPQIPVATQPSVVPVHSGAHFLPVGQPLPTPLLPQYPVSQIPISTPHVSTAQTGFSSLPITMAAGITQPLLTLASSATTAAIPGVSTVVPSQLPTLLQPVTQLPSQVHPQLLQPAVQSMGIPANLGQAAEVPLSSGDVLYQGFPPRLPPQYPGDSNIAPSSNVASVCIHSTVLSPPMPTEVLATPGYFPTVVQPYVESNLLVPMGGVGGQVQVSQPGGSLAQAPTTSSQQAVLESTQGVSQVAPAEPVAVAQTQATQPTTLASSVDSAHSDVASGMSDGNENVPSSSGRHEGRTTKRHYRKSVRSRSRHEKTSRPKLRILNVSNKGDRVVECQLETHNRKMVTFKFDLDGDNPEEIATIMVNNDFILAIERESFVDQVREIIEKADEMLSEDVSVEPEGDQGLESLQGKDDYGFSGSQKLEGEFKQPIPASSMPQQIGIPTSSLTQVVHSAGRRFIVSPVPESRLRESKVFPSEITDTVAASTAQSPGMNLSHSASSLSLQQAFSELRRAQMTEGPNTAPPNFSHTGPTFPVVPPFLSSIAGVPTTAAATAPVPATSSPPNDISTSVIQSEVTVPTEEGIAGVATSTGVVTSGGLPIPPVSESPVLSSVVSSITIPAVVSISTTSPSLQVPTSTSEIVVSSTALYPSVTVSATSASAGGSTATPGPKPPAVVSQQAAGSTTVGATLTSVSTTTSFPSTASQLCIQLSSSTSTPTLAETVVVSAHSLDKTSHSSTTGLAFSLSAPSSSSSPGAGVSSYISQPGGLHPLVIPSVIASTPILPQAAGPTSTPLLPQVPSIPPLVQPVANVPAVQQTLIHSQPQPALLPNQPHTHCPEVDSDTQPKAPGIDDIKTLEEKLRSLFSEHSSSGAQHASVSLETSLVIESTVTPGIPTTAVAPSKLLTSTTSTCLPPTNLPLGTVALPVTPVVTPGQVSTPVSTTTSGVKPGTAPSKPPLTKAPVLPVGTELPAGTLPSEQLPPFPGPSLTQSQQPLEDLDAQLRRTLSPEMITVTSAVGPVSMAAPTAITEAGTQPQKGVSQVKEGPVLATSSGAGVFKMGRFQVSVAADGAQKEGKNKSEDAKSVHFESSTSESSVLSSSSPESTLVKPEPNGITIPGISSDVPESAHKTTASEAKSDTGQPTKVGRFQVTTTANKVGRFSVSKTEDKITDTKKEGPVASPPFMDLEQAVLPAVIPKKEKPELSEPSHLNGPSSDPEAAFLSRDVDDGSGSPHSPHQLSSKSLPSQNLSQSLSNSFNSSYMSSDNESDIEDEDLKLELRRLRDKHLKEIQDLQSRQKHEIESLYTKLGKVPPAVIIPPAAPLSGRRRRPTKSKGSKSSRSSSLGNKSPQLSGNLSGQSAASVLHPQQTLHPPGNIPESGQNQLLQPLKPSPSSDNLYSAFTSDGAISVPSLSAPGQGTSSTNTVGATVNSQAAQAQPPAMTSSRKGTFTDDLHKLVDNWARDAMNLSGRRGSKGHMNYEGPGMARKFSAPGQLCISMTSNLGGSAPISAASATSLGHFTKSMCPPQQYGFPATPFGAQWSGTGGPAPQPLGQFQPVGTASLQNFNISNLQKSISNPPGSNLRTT
Conditions: WNK1; 1 uM; read-out: Percent Control (%). Put shortly:
as §1

T1 sequence (Q8NI60 163-647): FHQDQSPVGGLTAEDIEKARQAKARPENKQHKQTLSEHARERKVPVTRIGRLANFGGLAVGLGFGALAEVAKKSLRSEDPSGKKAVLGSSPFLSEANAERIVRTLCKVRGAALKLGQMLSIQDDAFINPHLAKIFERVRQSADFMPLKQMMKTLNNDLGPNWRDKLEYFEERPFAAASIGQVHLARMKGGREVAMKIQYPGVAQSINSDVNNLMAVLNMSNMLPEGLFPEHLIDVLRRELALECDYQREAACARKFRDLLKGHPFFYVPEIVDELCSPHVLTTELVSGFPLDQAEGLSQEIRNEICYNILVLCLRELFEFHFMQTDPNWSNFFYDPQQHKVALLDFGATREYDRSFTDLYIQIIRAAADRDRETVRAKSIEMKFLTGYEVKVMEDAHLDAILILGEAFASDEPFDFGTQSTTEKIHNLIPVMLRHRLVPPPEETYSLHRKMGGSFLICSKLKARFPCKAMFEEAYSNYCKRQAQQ

For `Cc1ccc(C(=O)Nc2ccc(CN3CCN(C)CC3)c(C(F)(F)F)c2)cc1C#Cc1cnc2c(Nc3cnn(C)c3)cccn12` [Example 1, 4-methyl-3-((8-((1-methyl-1H-pyrazol-4-yl)amino)imidazo[1,2-a]pyridin-3-yl)ethynyl)-N-(4-((4-methylpiperazin-1-yl)methyl)-3-(trifluoromethyl)phenyl)benzamide], the remaining binding at 1 µM in assay [1] is 100%; in assay [2], 100%; in assay [3], 16%; in assay [4], 62%; in assay [5], 0%; in assay [6] it was 24%. The remaining binding at 1 µM in assay [7] worked out at 55%.

`Cc1ccc(NC(=O)C2(C(=O)Nc3ccc(F)cc3)CC2)cc1C#Cc1cnc2c(Nc3cnn(C(C)C)c3)cccn12` [Example 78]: the remaining binding at 1 µM in assay [1] worked out at 100%; in assay [2], 100%; in assay [3], 100%; in assay [4] it was 90%; in assay [5], 97%; in assay [6], 50%. Further, the remaining binding at 1 µM in assay [7] was 92%.

Take `Cc1cn(-c2cc(NC(=O)c3ccc(C)c(C#Cc4cnc5c(Nc6cnn(C)c6)cccn45)c3)cc(C(F)(F)F)c2)cn1` [Example 12, 4-methyl-N-(3-(4-methyl-1H-imidazol-1-yl)-5-(trifluoromethyl)phenyl)-3-((8-((1-methyl-1H-pyrazol-4-yl)amino)imidazo[1,2-a]pyridin-3-yl)ethynyl)benzamide]: the remaining binding at 1 µM worked out at 93% in assay [1]; 92% in assay [2]; 78% in assay [3]; 100% in assay [4]; 1% in assay [5]; 15% in assay [6]. Further, the remaining binding at 1 µM in assay [7] stood at 100%.
